From patent US20140148498A1, “METHODS AND COMPOSITIONS FOR THE TREATMENT OF MARFAN SYNDROME AND ASSOCIATED DISORDERS” (THE JOHNS HOPKINS UNIVERSITY, priority 2011, published 2014)
Entries after “also recorded” stand apart in the source; their conditions may differ.

Tests used:
Fbn1^C1039G/+ mice [1] = assay: Aortic wall architecture score (VVG staining); format: in vivo
Method: Latex-infused ascending aortas were transected just above the level of the aortic valve, and 2-3 mm transverse sections were mounted in 4% agar prior to paraffin fixation. Five micrometer aortic sections underwent Verhoeff-van Giesen (VVG) staining and were imaged at 40× magnification, using a Nikon Eclipse E400 microscope. Wall thickness of the aortic media was measured by a single blinded observer at 16 different locations around the most proximal ascending aortic ring and averaged. Wall architecture of 4 representative sections for each mouse was assessed by the same 3 blinded observers and graded on an arbitrary scale of 1 (indicating no breaks in the elastic fiber) to 5 (indicating diffuse fragmentation), and the results were averaged. Elastic fiber content was quantified in four separate representative images of each section of the most proximal ascending aorta by a single blinded observer, using NIS Elements Advanced Research (Nikon, Japan). The aortic media and the elastic fibers were individually outlined and their areas calculated. The respective areas were averaged from all the images of a given aortic section and the ratio of elastic fiber content to total aortic media was determined. Individual lobes of the lungs were mounted in 4% agar and fixed in paraffin. Five micrometer lung sections underwent hematoxylin and eosin staining and were imaged at 10× magnification, using a Nikon Eclipse E400 microscope. Five fields were analyzed for each lobe of each lung by a single blinded observer, and a mean linear intercept was calculated using a previously described method (J. P. Habashi et al., Science 312, 117 (2006); and E. R. Neptune et al., Nat. Genet. 33, 407 (2003)).

Fbn1^C1039G/+ mice [2] = assay: Aortic root growth by echocardiography, 7 months of treatment (Examples 3-5); format: in vivo; conditions: for Aortic root growth over 7 months of treatment: versus placebo, drug in drinking water from 8 weeks of age
Method: A head-to-head comparison of ACEi versus ARBs was performed. Fbn1^C1039G/+ mice and WT littermates were treated with hemodynamically equivalent doses (FIG. 8) of either the ACEi enalapril (10 to 15 mg/kg of body weight per day) or the ARB losartan (40 to 60 mg/kg per day) (R. D. Patten et al., Clin. Sci 104, 109 (2003)), beginning at 8 weeks of age, and were assessed with serial echocardiograms. […] It is noteworthy that losartan reduced aortic root growth in Fbn1^C1039G/+ mice, but had no effect in WT littermates (P=0.27). […] Whether AT2 signaling is needed to achieve losartan's full therapeutic benefit was assessed. AT2KO:Fbn1^C1039G/+ mice were treated with losartan from 8 weeks of age and followed by serial echocardiography until they were killed at 9 months of age (FIG. 2C).
(§1) All mice were cared for under strict compliance with the Animal Care and Use Committee of the Johns Hopkins University School of Medicine. The Fbn1^C1039G/+ and AT2KO lines were maintained n a pure C57BL/6 background (backcrossed for greater than 9 generations), allowing for valid comparisons. In order to further accommodate the potential for temporal- or background-specified variation, all comparisons were made between contemporary littermates when possible. The AT21C0 mice were obtained as a generous gift from Dr. Inagami (T. Ichiki et al., Nature 377, 748 (1995)). The Agtr2 gene resides on the X chromosome and therefore we used either male mice carrying the mutated allele (who are hemizygous) or homozygous females, both of which have been previously shown to be functionally null for the AT2 receptor (T. Ichiki et al., Nature 377, 748 (1995)). Mice were sacrificed with an inhalation overdose of halothane (Sigma-Aldrich, St. Louis). Mice underwent immediate laparotomy, descending abdominal aortic transection, and PBS (pH 7.4) was infused through the right and left ventricles to flush out the blood. Mice that were analyzed for Western Blot analysis had their proximal ascending aortas (root to right brachiocephalic trunk) immediately dissected out, flash frozen in liquid nitrogen and stored at −80d until further processing. Mice that were analyzed for aortic histology had latex injected under low pressure into the left ventricular apex until it was visible in the descending abdominal aorta. Mice that were analyzed for lung histology had their trachea intubated with a 20-gauge blunted needle, and 0.5% agar was infused under a low and constant pressure to gradually inflate the lungs. The trachea was then tied-off using vicryl and the needle was removed. Mice were fixed for 24 hours in 10% buffered formalin, after which the heart, aorta and lungs were removed and stored in 70% ethanol.
(§2) Mice were started on medication at 8 weeks of age and continued for 7 months. Losartan was dissolved in drinking water and filtered to reach a concentration of 0.6 g/L, giving an estimated daily dose of 40-60 mg/kg/day. Enalapril was dissolved in drinking water and filtered to reach a final concentration of 0.15 g/L, giving an estimated daily dose of 10-15 mg/kg/day. […] Spironolactone was dissolved in drinking water and filtered to give an estimated dose of 20 mg/kg/day, a dose previously shown to have in-vivo phenotypic benefit in cardiovascular disease states (S. Sakurabayashi-Kitade et al., Atherosclerosis 206, 54 (2009)). Placebo-treated animals received regular drinking water. Blood pressures were analyzed by taking 20 tail cuff blood pressures per day over 5 days in each mouse to habituate the mice to the tail cuff pressure system, and the blood pressures obtained on the last day were averaged. At least 4 mice for each treatment group were analyzed.
Nair hair removal cream was used on all mice the day prior to echocardiograms. All echocardiograms were performed on awake, unsedated mice using the Visualsonics Vevo 660 V1.3.6 imaging system and a 30 MHz transducer. Mice were imaged at baseline, 1 month after treatment and then every two months until the time of sacrifice. […]

Fbn1^C1039G/+ mice [3] = assay: Systolic blood pressure by tail cuff; format: in vivo; conditions: compared to placebo-treated animals, FIG. 8
Method: as §2

p38 = assay: Western blot of proximal ascending aorta: p38 activation (Examples 4-5); format: in vivo, mice; conditions: Fbn1^C1039G/+ mice, FIG. 13
Description: as §1, with “The trachea was then tied-off using vicryl and the needle was removed. Mice were fixed for 24 hours in 10% buffered formalin, after which the heart, aorta and lungs were removed and stored in 70% ethanol.” left out
(§3) Mouse aortic root and ascending aortas (aortic root excluding the aortic valve to origin of right brachiocephalic trunk) were harvested, snap-frozen in liquid nitrogen and stored at −80° C. until processed. […] Equal protein loading of samples was determined by a protein assay (BioRad, CA), and confirmed by probing with antibodies against β-Actin or GAPDH (Sigma, Mo.). […]

JNK1 = assay: Western blot of proximal ascending aorta: JNK1 activation (Examples 4-5); format: in vivo, mice; conditions: Fbn1^C1039G/+ mice, FIG. 13
Description: as §1, with “The trachea was then tied-off using vicryl and the needle was removed. Mice were fixed for 24 hours in 10% buffered formalin, after which the heart, aorta and lungs were removed and stored in 70% ethanol.” left out
as §3

Smad2 = assay: Western blot of aortic root and proximal ascending aorta: Smad2 activation (Examples 4-5); format: in vivo, mice; conditions: Fbn1^C1039G/+ mice, FIG. 10B
Description: as §1
Mouse aortic root and ascending aortas (aortic root excluding the aortic valve to origin of right brachiocephalic trunk) were harvested, snap-frozen in liquid nitrogen and stored at −80° C. until processed. Protein was extracted using the reagents and protocol from a Total Protein Extraction Kit containing protease inhibitor and Protein Phosphatase Inhibitor Cocktail (Millipore, MA). Aortas were homogenized using a pellet pestle motor (Kimble-Kontes, NJ) as per the extraction kit protocol. […] Equal protein loading of samples was determined by a protein assay (BioRad, CA), and confirmed by probing with antibodies against β-Actin or GAPDH (Sigma, Mo.). […] Blots were then washed in PBS-T, developed using SuperSignalWest HRP substrate (Pierce Scientific, IL), exposed to BioMax Scientific Imaging Film (Sigma, Mo.) and quantified using Imaged analysis software (NIH, MD).

ERK1/2 = assay: Western blot of aortic root and proximal ascending aorta: ERK1/2 activation (Examples 4-5); format: in vivo, mice; conditions: Fbn1^C1039G/+ mice, FIG. 10B
Description: as §1, with “The trachea was then tied-off using vicryl and the needle was removed. Mice were fixed for 24 hours in 10% buffered formalin, after which the heart, aorta and lungs were removed and stored in 70% ethanol.” left out
as §3

With `CCOC(=O)[C@H](CCc1ccccc1)N[C@@H](C)C(=O)N1CCC[C@H]1C(=O)O` [enalapril] the “Aortic wall architecture score” value (Fbn1^C1039G/+ mice [1]; FIG. 9) was “no more effective than placebo”, the “Aortic wall architecture score” value (Fbn1^C1039G/+ mice [1]; FIG. 9, listed as Enalapril) was “no more beneficial than placebo” and the “Final absolute aortic root diameter” value (Fbn1^C1039G/+ mice [2]; 7 months of treatment, FIG. 2B, mean +/- 2 SEM) was 2.18+/−0.18 mm. The “Aortic root growth over 7 months of treatment” value (Fbn1^C1039G/+ mice [2]) was “marginal (P=0.05) decrease in growth”, the “Aortic root growth over 7 months of treatment” value (Fbn1^C1039G/+ mice [2]; listed as Enalapril) was “only marginally better than placebo treatment” and the Systolic blood pressure (Fbn1^C1039G/+ mice [3]) was “equal reduction in systolic blood pressure”. The p38 activation (p38) was “do not affect p38 activation; also recorded: neither had any effect”, the JNK1 activation (JNK1) was “small reduction in JNK1 activation; also recorded: modest reduction in JNK1 activation” and the Smad2 activation (Smad2) was “decreased”. The Smad2 activation (Smad2; listed as Enalapril) was “significantly more than losartan” and the ERK1/2 activation (ERK1/2) was “no more effective than placebo; also recorded: failed to reduce ERK1/2 activation”.
